The test concerns patients with DSM-III-R or DSM-IV diagnoses of SCZ refractory or intolerant to conventional antipsychotics. In words: Clozapine response after 6 months treatment (% score change on BPRS, BPOS, BNEG) by SLC1A1 genotype/haplotype. Type of test: in vivo, human. As to conditions: 6 months clozapine. The text has this:
Effect of 5 Single Nucleotide Polymorphisms (SNPs) Across the SLC1A1 Gene on Clozapine (CZ) Response After 6 Months Treatment in Two Distinct Schizophrenic Populations (Caucasian and African-American) Refractory or Intolerant to Conventional Antipsychotics.
97 patients (73 Caucasians and 24 African-Americans) with DSM-III-R or DSM-IV diagnoses of SCZ assessed from Case Western Reserve University, Cleveland, Ohio.
No significant differences were observed between Caucasians and African-Americans in terms of gender ratio (P=0.234) or mean age (P=0.561). Almost all subjects met criteria for treatment refractoriness or intolerance to typical antipsychotic therapy as defined by Kane et al (1988). Patients underwent a washout period of 2 to 4 weeks during which, unless clinically necessary, they received no medications before starting clozapine (CZ). CZ treatment was continued for a minimum of 6 months during which patients were evaluated prospectively. CZ blood levels were monitored throughout course of treatment to ascertain compliance,
Treatment response is evaluated as a percentage (%) score change from baseline using the 18-item Brief Psychiatric Rating Scale (BPRS), a 4-item positive symptom subscale (BPOS) and 3-item negative symptom subscale (BNEG)—after 6 months of clozapine treatment. % score change=(6 months score−baseline score)/Baseline score. A negative value of % score change in each scale would indicate an improvement in symptoms measured by that particular scale.
Blood samples were collected from clinical sites and sent to the Centre for Addiction and Mental Health (CAMH) in Toronto, ON, Canada—where genotyping of patients' DNA was performed by 5′-exonuclease fluorescence assays. The 5 informative SNPs (minor allele frequency>20%) spanning SLC1A1 were chosen based on location (see Table 1)—with 2 in coding regions and 3 from different intronic regions and different haplotype blocks. Laboratory staff was blind to the psychiatric ratings.
Within each ethnic population, individual SNP analyses of % score changes (continuous data) were performed using Analysis of Variance (ANOVA) in STATA ver7.0. Haplotype analysis of unphased quantitative data was performed using QTPHASE (Dudbridge, 2003).

Take `CN1CCN(C2=Nc3cc(Cl)ccc3Nc3ccccc32)CC1` [clozapine]: the “Mean BPOS % score change” value (haplotype 1-1-1 in SNP window 1-2-3, Caucasians and African-Americans combined) is given as −0.198. The “Mean BNEG % score change” value runs as follows: (haplotype 1-1 in SNP window 4-5, African-Americans) −0.379; (haplotype 1-2-1 in SNP window 3-4-5, African-Americans) 0.086; (haplotype 1-2 in SNP window 3-4, African-Americans) 0.143; (haplotype 2-1-1 in SNP window 2-3-4, Caucasians) 0.295; (haplotype 2-1-1 in SNP window 3-4-5, African-Americans) −0.379; (haplotype 2-1 in SNP window 3-4, African-Americans) −0.341. Also, the “Mean BNEG % score change” value (haplotype 2-1 in SNP window 4-5, African-Americans) is 0.107; the “Mean BNEG % score change” value (haplotype 2-2-1 in SNP window 1-2-3, Caucasians and African-Americans combined) is reported as 0.592; the “Mean BNEG % score change” value (haplotype 2-2-1 in SNP window 1-2-3, Caucasians) amounted to 0.889; the “Mean BNEG % score change” value (rs301434 genotype C/C, Caucasians & African-Americans combined) was −0.115; the “Mean BNEG % score change” value (rs301434 genotype T/C, Caucasians & African-Americans combined) is −0.136; the “Mean BNEG % score change” value (rs301434 genotype T/T, Caucasians & African-Americans combined) turned out to be 0.636. Moreover, the “Mean BNEG % score change” value is, setting by setting: (rs1980943 genotype A/A, African-Americans, negative = improvement) 3.000; (rs1980943 genotype G/A, African-Americans, negative = improvement) −0.378; (rs1980943 genotype G/G, African-Americans, (6 months score-baseline score)/baseline score, negative = improvement) 0.067. Besides, the “Mean BPRS % score change” value by setting is: (rs301434 genotype C/C, Caucasians, negative = improvement) −0.248; (rs301434 genotype T/C, Caucasians, negative = improvement) −0.310; (rs301434 genotype T/T, Caucasians, negative = improvement) 1.310.

The record behind these values is patent US20100129805A1, “SLC1A1 ANTIPSYCHOTIC DRUG RESPONSE MARKERS” (priority 2006, published 2010).
